Values joined by “and” are separate entries in the source; they are usually repeats but may differ in a detail not shown here. Equal entries are not always repeated.
Experiments:
[1] = Phase 2 clinical trial of pembrolizumab plus platinum doublet chemotherapy and concurrent radiotherapy: grade ≥3 pneumonitis and adverse events; assay type: in vivo, human; settings: pembrolizumab plus CCRT; for Grade ≥3 pneumonitis (all cause), % [90% CI]: all enrolled patients, data cutoff Jan. 3, 2020
From the text: (§1) FIG. 1 illustrate a schema of a clinical phase 2 study of pembrolizumab plus platinum doublet chemotherapy and concurrent radiotherapy as first-line therapy for unresectable, locally advanced stage III NSCLC (NSCLC).
(§2) This is a non-randomized, open label study. FIG. 1 sets forth a schematic of the study. The primary objective is overall response rate (ORR) per response evaluation criteria in solid tumors (RECIST) version 1.1 by blinded independent central review (BICR). Secondary objectives are progression free survival (PFS), overall survival (OS) and safety. Key eligibility criteria are as set forth in FIG. 1 and include Stage IIIA-C, unresectable, locally advanced, pathologically confirmed, previously untreated NSCLC; measurable disease based on RECIST v1.1; eastern cooperative oncology group (ECOG) performance status 0 or 1; adequate pulmonary function; and no prior systemic immunosuppressive therapy within 7 days.
A secondary primary objective of the study was incidence of grade≥3 pneumonitis, which was assessed in all enrolled patients, regardless of their follow-up duration (see table below). In both cohorts, the rate of grade≥3 pneumonitis was less than 10%. One patient in cohort B had interstitial lung disease; the remaining patients had either pneumonitis or radiation pneumonitis. Incidence of other adverse events was consistent with that reported in other pembrolizumab monotherapy studies in NSCLC. Immune-mediated adverse events and infusion reactions (regardless of attribution to study treatment by the investigator) occurred in 47% of patients in cohort A and 27% in cohort B. 15% of patients in cohort A and 8% in cohort B experienced grade 2-5 immune mediated adverse events or infusion reactions.

[2] = system: unresectable, locally advanced stage III NSCLC; experiment: Phase 2 clinical trial of pembrolizumab plus platinum doublet chemotherapy and concurrent radiotherapy: ORR, duration of response, PFS, OS by BICR per RECIST v1.1; assay type: in vivo, human; settings: pembrolizumab plus CCRT; for 6-mo OS rate / 6-mo PFS rate / Response duration ≥6 month, % / Duration of response, median (range): Kaplan-Meier estimate; for Duration of response, median (range): + = no progressive disease at last assessment; for ORR, % [90% CI]: patients with ≥15 weeks follow up, data cutoff Jan. 3, 2020
From the text: as §1, §2
The table below provides ORR and Duration of Response/Efficacy by BICR per RECIST v1.1, patients with ≥15 weeks follow up (Jan. 3, 2020 data cutoff date)
PFS and OS were assessed in patients with at least 15 weeks follow up. As shown in the table above, at the data cutoff, few patients in either cohort had experienced disease progression or died.

[3] = Cohort A, N = 112, ≥15 weeks follow up
[4] = Cohort B, N = 53, ≥15 weeks follow up

pembrolizumab: monoclonal antibody directed to the PD-1 receptor; KEYTRUDA, Merck and Co., Inc.
Immune-mediated adverse events and infusion reactions, Grades 3-5, % ([1]; Cohort A, N = 112): (15.2) %
Immune-mediated adverse events and infusion reactions, Led to death, % ([1]; Cohort A, N = 112): (3.6) %
Treatment Releated Adverse Events, % ([1]; Cohort A, N = 112): (93.8) %
Treatment Releated Adverse Events, Grade 3-5, % ([1]; Cohort A, N = 112): (64.3) %
Treatment Releated Adverse Events, Led to death, % ([1]; Cohort A, N = 112): (3.6) %
Treatment Releated Adverse Events, Led to discontinuation of any treatment component, % ([1]; Cohort A, N = 112): (28.6) %
Grade ≥3 pneumonitis (all cause), % [90% CI] ([1]; Cohort A, N = 112): (8.0) [4.3-13.6] %
Treatment Releated Adverse Events, % ([1]; Cohort B, N = 73): (87.7) %
Treatment Releated Adverse Events, Grade 3-5, % ([1]; Cohort B, N = 73): (41.1) %
Treatment Releated Adverse Events, Led to discontinuation of any treatment component, % ([1]; Cohort B, N = 73): (12.3) %
Grade ≥3 pneumonitis (all cause), % [90% CI] ([1]; Cohort B, N = 73): (5.5) [1.9-12.1] %
grade 2-5 immune mediated adverse events or infusion reactions, % of patients ([1]; cohort A): 15%
grade 2-5 immune mediated adverse events or infusion reactions, % of patients ([1]; cohort B): 8%
patients with interstitial lung disease (among grade ≥3 pneumonitis) ([1]; cohort B): One
incidence of adverse events ([1]; compared with CCRT for stage III NSCLC and pembrolizumab monotherapy): consistent with the established toxicity profiles
Observed rates of grade ≥3 pneumonitis ([1]; compared with immunotherapy combined with CCRT): within the expected range
6-mo OS rate ([2]; Cohort A, N = 112): 87% and 87.2%
6-mo PFS rate ([2]; Cohort A, N = 112): 81.4%
Response duration ≥6 month, % ([2]; Cohort A, N = 112): (91.1) %
Duration of response, median (range) ([2]; Cohort A, N = 112): NR (1.6+ to 10.5+)
ORR, % [90% CI] ([2]; Cohort A, N = 112): (67.0) [58.9-74.3] %
Complete response (CR), % [2, 3]: (2.7) %
No Assessment, % [2, 3]: (8.9) %
Not evaluable, % [2, 3]: (2.7) %
PD, % [2, 3]: (0.9) %
Partial response (PR), % [2, 3]: (64.3) %
6-mo OS rate ([2]; Cohort B, N = 53): 95% and 94.8%
6-mo PFS rate ([2]; Cohort B, N = 53): 85.2%
Response duration ≥6 month, % ([2]; Cohort B, N = 53): (100) %
Duration of response, median (range) ([2]; Cohort B, N = 53): NR (1.7+ to 10.5+)
ORR, % [90% CI] ([2]; Cohort B, N = 53): (56.6) [44.4-68.2] %
Complete response (CR), % [2, 4]: (3.8) %
No Assessment, % [2, 4]: (9.4) %
Partial response (PR), % [2, 4]: (52.8) %
ORR ([2]; both cohorts): exceeded 50%
progression free survival rate at 6 months ([2]; both cohorts, at least 15 weeks follow up): greater than 80%
Median overall survival ([2]; either cohort, at data cutoff): had not been reached
Median progression free survival ([2]; either cohort, at data cutoff): had not been reached
Estimated response duration ([2]; most patients with a response): ≥ 6 months
antitumor activity ([2]; patients with unresectable, locally advanced stage III NSCLC): promising antitumor activity

Source: patent US20230338521A1, “METHODS OF TREATING CANCER USING A COMBINATION OF A PD-1 ANTAGONIST, A CHEMORADIATION THERAPY AND A PARP INHIBITOR” (priority 2020, published 2023)
